US5912231A, “Substitution analogues of magainin peptides” (priority 1994, dated 1999)
Where two headings read alike, the source gives them in different places. Residues, ends and D or L forms follow the SMILES beside them.

Tests used:
Assay type in all cases: cell-based
Staphylococcus aureus = conditions: at 50 μg/ml peptide; LB medium; 6 h
Experimental: (§1) Antimicrobial assays (for Examples 3 to 27) were carried out in 96-well tissue culture plates. Each well was incubated with a given microorganism (Escherichia coli, Staphylococcus epidermidis, Staphylococcus aureus, or Pseudomonas aeruginosa) suspended in LB medium (Examples 3-17), or TSB medium (Examples 18-27). Upon the addition of Magainin I or its substitution analogues, (dissolved in 1×PBS, pH 7.0) each well contained a final cell density of 1.0×10^6 colony forming units (CFU)/ml. The final peptide concentrations used were 100 μg/ml., 75.0 μg/ml, 50.0 μg/ml, 25 μg/ml, 12.5 μg/ml, 10 μg/ml, 5μg/ml, 2.5 μg/ml, and 1.25 μg/ml.
(§2) Addition of peptides to the wells was defined as time zero. At six hours, the plates were placed in a Titertek Multiskan apparatus and the O.D.620 determined. The plates as well as the initial innoculum were incubated at 37° C.
(§3) Five wells per plate contained media alone, while five others contained medium plus cells. These controls were used to eliminate the possibility of media contamination while providing a measure of uninhibited growth of the microorganisms.
(§4) The degree of peptide activity was determined by comparing the substitution analogues with uninhibited growth of the control cells over a six-hour period.

Escherichia coli = conditions: 6 h
Experimental: as §1, §2, §3, §4

[1] = system: Staphylococcus epidermidis; conditions: 6 h
Experimental: as §1, §2, §3, §4

Pseudomonas aeruginosa = conditions: TSB medium, 6 h
Experimental: as §1, §2, §3, §4

[2] = at 10 μg/ml peptide, TSB medium
[3] = at 25 μg/ml peptide, TSB medium

GIGKFILHAAGKFGKAFVGIMKS (GIGKFLHAAGKFGKAFVGIMKS) [Magainin I, residue 19 deleted, residue 8 alanine]
100%: % effective growth inhibition of S. aureus (Staphylococcus aureus) | % effective growth inhibition of E. coli (Escherichia coli; at 2.5 μg/ml peptide, LB medium) | % effective growth inhibition of S. epidermidis ([1]; at 25 μg/ml peptide, LB medium)

CC[C@H](C)[C@H](NC(=O)CN)C(=O)NCC(=O)N[C@@H](CCCCN)C(=O)N[C@@H](CCCCN)C(=O)N[C@@H](CC(C)C)C(=O)N[C@@H](Cc1c[nH]cn1)C(=O)N[C@@H](CCCCN)C(=O)N[C@@H](CCCCN)C(=O)NCC(=O)N[C@@H](CCCCN)C(=O)N[C@@H](Cc1ccccc1)C(=O)NCC(=O)N[C@@H](CCCCN)C(=O)N[C@@H](Cc1ccccc1)C(=O)N[C@@H](CCCCN)C(=O)NCC(=O)N[C@@H](C)C(=O)N[C@H](C(=O)N[C@@H](CC(C)C)C(=O)N[C@@H](CCCCN)C(=O)N[C@@H](C)C(=O)O)[C@@H](C)CC [Example 8] (H-GIGKKLHKKGKFGKFKGAILKA-OH)
100%: % effective growth inhibition of P. aeruginosa (Pseudomonas aeruginosa; at 5 μg/ml peptide) | % effective growth inhibition of P. aeruginosa (Pseudomonas aeruginosa; at 10 μg/ml peptide) | % effective growth inhibition of P. aeruginosa (Pseudomonas aeruginosa; at 25 μg/ml peptide) | % effective growth inhibition of E. coli (Escherichia coli; at 5 μg/ml peptide, LB medium) | % effective growth inhibition of E. coli (Escherichia coli; at 5 μg/ml peptide, TSB medium) | % effective growth inhibition of E. coli (Escherichia coli; [2]) | % effective growth inhibition of E. coli (Escherichia coli; at 25 μg/ml peptide, LB medium) | % effective growth inhibition of E. coli (Escherichia coli; [3]) | % effective growth inhibition of E. coli (Escherichia coli; at 75 μg/ml peptide, LB medium) | % effective growth inhibition of E. coli (Escherichia coli; at 100 μg/ml peptide, LB medium) | % effective growth inhibition of S. epidermidis ([1]; at 5 μg/ml peptide, TSB medium) | % effective growth inhibition of S. epidermidis [1, 2] | % effective growth inhibition of S. epidermidis [1, 3] | % effective growth inhibition of S. epidermidis ([1]; at 50 μg/ml peptide, LB medium) | % effective growth inhibition of S. epidermidis ([1]; at 75 μg/ml peptide, LB medium)
